According to US20180000085A1, “USE OF PICOLINAMIDE COMPOUNDS WITH FUNGICIDAL ACTIVITY” (DOW AGROSCIENCES LLC, priority 2014, published 2018):

What was measured:
Assay type in all cases: in vivo
[1] = test system: Colletotrichum lagenarium; assay: Cucumber anthracnose (COLLLA) disease control; conditions: 100 ppm, 1 Day Protectant
Protocol: All fungicides were evaluated using the aforementioned method for their activity vs. all target diseases, unless stated otherwise. Wheat leaf blotch and brown rust activity were also evaluated using track spray applications, in which case the fungicides were formulated as EC formulations, containing 0.1% Trycol 5941 in the spray solutions. Wheat plants (variety Yuma) were grown from seed in a greenhouse in 50% mineral soil/50% soil-less Metro mix until the first leaf was fully emerged, with 7-10 seedlings per pot. These plants were inoculated with an aqueous spore suspension of Zymoseptoria tritici either prior to or after fungicide treatments. After inoculation the plants were kept in 100% relative humidity (one day in a dark dew chamber followed by two to three days in a lighted dew chamber at 20° C.) to permit spores to germinate and infect the leaf. The plants were then transferred to a greenhouse set at 20° C. for disease to develop. When disease symptoms were fully expressed on the 1st leaves of untreated plants, infection levels were assessed on a scale of 0 to 100 percent disease severity. Percent disease control was calculated using the ratio of disease severity on treated plants relative to untreated plants. Example K: Evaluation of Fungicidal Activity: Cucumber Anthracnose (Colletotrichum lagenarium; Bayer Code COLLLA) Cucumber seedlings (variety Bush Pickle) were propagated in soil-less Metro mix, with each pot having one plant, and used in the test when 12 to 14 days old. Test plants were inoculated with an aqueous spore suspension of Colletotrichum lagenarium 24 hr after fungicide treatments. After inoculation the plants were kept in a dew room at 22° C. with 100% relative humidity for 48 hr to permit spores to germinate and infect the leaf. The plants were then transferred to a growth room set at 22° C. for disease to develop. Fungicide formulation, application and disease assessment on the sprayed leaves followed the procedures as described in the Example A.

Pyricularia oryzae = conditions: 100 ppm; 1 Day Protectant; rice
Cercospora beticola = assay: Leaf spot of sugar beets (CERCBE) disease control; conditions: 100 ppm; 1 Day Protectant; sugar beet
Protocol: All fungicides were evaluated using the aforementioned method for their activity vs. all target diseases, unless stated otherwise. Wheat leaf blotch and brown rust activity were also evaluated using track spray applications, in which case the fungicides were formulated as EC formulations, containing 0.1% Trycol 5941 in the spray solutions. Wheat plants (variety Yuma) were grown from seed in a greenhouse in 50% mineral soil/50% soil-less Metro mix until the first leaf was fully emerged, with 7-10 seedlings per pot. These plants were inoculated with an aqueous spore suspension of Zymoseptoria tritici either prior to or after fungicide treatments. After inoculation the plants were kept in 100% relative humidity (one day in a dark dew chamber followed by two to three days in a lighted dew chamber at 20° C.) to permit spores to germinate and infect the leaf. The plants were then transferred to a greenhouse set at 20° C. for disease to develop. When disease symptoms were fully expressed on the 1st leaves of untreated plants, infection levels were assessed on a scale of 0 to 100 percent disease severity. Percent disease control was calculated using the ratio of disease severity on treated plants relative to untreated plants. Example F: Evaluation of Fungicidal Activity: Leaf Spot of Sugar Beets (Cercospora beticola; Bayer Code CERCBE) Sugar beet plants (variety HH88) were grown in soil-less Metro mix and trimmed regularly to maintain a uniform plant size prior to test. Plants were inoculated with a spore suspension 24 hr after fungicide treatments. Inoculated plants were kept in a dew chamber at 22° C. for 48 hr then incubated in a greenhouse set at 24° C. under a clear plastic hood with bottom ventilation until disease symptoms were fully expressed. Fungicide formulation, application and disease assessment on the sprayed leaves followed the procedures as described in the Example A.

Phakopsora pachyrhizi = assay: Asian soybean rust (PHAKPA) disease control; conditions: 25 ppm; for PHAKPA disease control, 1DP: 1 Day Protectant; for PHAKPA disease control, 3DC: 3 Day Curative
Leptosphaeria nodorum = assay: Wheat glume blotch (LEPTNO) disease control; conditions: 100 ppm, 1 Day Protectant
Protocol: All fungicides were evaluated using the aforementioned method for their activity vs. all target diseases, unless stated otherwise. Wheat leaf blotch and brown rust activity were also evaluated using track spray applications, in which case the fungicides were formulated as EC formulations, containing 0.1% Trycol 5941 in the spray solutions. Wheat plants (variety Yuma) were grown from seed in a greenhouse in 50% mineral soil/50% soil-less Metro mix until the first leaf was fully emerged, with 7-10 seedlings per pot. These plants were inoculated with an aqueous spore suspension of Zymoseptoria tritici either prior to or after fungicide treatments. After inoculation the plants were kept in 100% relative humidity (one day in a dark dew chamber followed by two to three days in a lighted dew chamber at 20° C.) to permit spores to germinate and infect the leaf. The plants were then transferred to a greenhouse set at 20° C. for disease to develop. When disease symptoms were fully expressed on the 1st leaves of untreated plants, infection levels were assessed on a scale of 0 to 100 percent disease severity. Percent disease control was calculated using the ratio of disease severity on treated plants relative to untreated plants. Example C: Evaluation of Fungicidal Activity: Wheat Glume Blotch (Leptosphaeria nodorum; Bayer Code […]) Wheat plants (variety Yuma) were grown from seed in a greenhouse in 50% mineral soil/50% soil-less Metro mix until the first leaf was fully emerged, with 7-10 seedlings per pot. These plants were inoculated with an aqueous spore suspension of Leptosphaeria nodorum 24 hr after fungicide treatments. After inoculation the plants were kept in 100% relative humidity (one day in a dark dew chamber followed by two days in a lighted dew chamber at 20° C.) to permit spores to germinate and infect the leaf. The plants were then transferred to a greenhouse set at 20° C. for disease to develop. Fungicide formulation, application and disease assessment followed the procedures as described in the Example A.

| SMILES | COLLLA disease control, 1DP [1] | PYRIOR disease control, 1DP (Pyricularia oryzae) | CERCBE disease control, 1DP (Cercospora beticola) | PHAKPA disease control, 1DP (Phakopsora pachyrhizi) | PHAKPA disease control, 3DC (Phakopsora pachyrhizi) | LEPTNO disease control, 1DP (Leptosphaeria nodorum) |
| --- | --- | --- | --- | --- | --- | --- |
| COc1ccnc(C(=O)N[C@@H](C)C(=O)O[C@@H](C)[C@H](Oc2ccccc2)c2ccccc2)c1OCOC(C)=O [Cmpd 500] | A (> 80) | A (> 80) | A (> 80) | B (≤ 80) | B (≤ 80) | A (> 80) |
| CCC(CC)[C@@H](Oc1ccccc1)[C@H](C)OC(=O)[C@H](C)NC(=O)c1nccc(OC)c1OCOC(C)=O [Cmpd 477] | A (> 80) | A (> 80) | A (> 80) | A (> 80) | B (≤ 80) | A (> 80) |
| CCC(C)C(Oc1ccccc1)C(C)OC(=O)C(C)NC(=O)c1nccc(OC)c1OCOC(C)=O (stereo not drawn) [Cmpd 692] | A (> 80) | A (> 80) | A (> 80) | A (> 80) | B (≤ 80) | A (> 80) |
| CCC(CC)[C@@H](Oc1ccc(F)cc1)[C@H](C)OC(=O)[C@H](C)NC(=O)c1nccc(OC)c1OCOC(C)=O [Cmpd 587] | A (> 80) | A (> 80) | A (> 80) | A (> 80) | B (≤ 80) | A (> 80) |
| CCC[C@@H](Oc1ccccc1)[C@H](C)OC(=O)[C@H](C)NC(=O)c1nccc(OC)c1OCOC(C)=O [Cmpd 699] | A (> 80) | A (> 80) | A (> 80) | A (> 80) | B (≤ 80) | A (> 80) |
| C=CC(C)C(Oc1ccccc1)C(C)OC(=O)C(C)NC(=O)c1nccc(OC)c1OCOC(C)=O (stereo not drawn) [Cmpd 694] | A (> 80) | A (> 80) | A (> 80) | A (> 80) | B (≤ 80) | A (> 80) |
